# Test: Activation of human platelet aggregation (gel-filtered platelets) induced by alpha thrombin
row,SMILES,EC50
1,"N=C(N)NCCC[C@H](NC(=O)[C@H](CC1CCCCC1)NC(=O)c1nnc(N)[nH]1)C(=O)N[C@@H](Cc1ccccc1)C(N)=O [5-Amino-1H-[1,2,4]triazole-3-carboxylic acid {(S)-1-[(S)-1-((S)-1-carbamoyl-2-phenyl-ethylcarbamoyl)-4-guanidino-butylcarbamoyl]-2-cyclohexyl-ethyl}-amide]",0.76 µM
2,"N=C(N)NCCC[C@H](NC(=O)[C@H](Cc1ccccc1)NC(=O)c1nnc(N)[nH]1)C(=O)N[C@@H](Cc1ccccc1)C(N)=O [5-Amino-1H-[1,2,4]triazole-3-carboxylic acid {(S)-1-[(S)-1-((S)-1-carbamoyl-2-phenyl-ethylcarbamoyl)-4-guanidino-butylcarbamoyl]-2-phenyl-ethyl}-amide]",1 µM
3,"NCCCC[C@H](NC(=O)[C@H](CC1CCCCC1)NC(=O)c1nnc(N)[nH]1)C(=O)N[C@@H](Cc1ccccc1)C(N)=O [5-Amino-1H-[1,2,4]triazole-3-carboxylic acid {(S)-1-[(S)-5-amino-1-((S)-1-carbamoyl-2-phenyl-ethylcarbamoyl)-pentylcarbamoyl]-2-cyclohexyl-ethyl}-amide]",3.9 µM
4,"N=C(N)NCCC[C@H](NC(=O)[C@H](CC1CCCCC1)NC(=O)c1nnc(NC(=O)C=Cc2cccc(Cl)c2)[nH]1)C(=O)N[C@@H](Cc1ccccc1)C(N)=O [5-[(E)-3-(3-Chloro-phenyl)-acryloylamino]-1H-[1,2,4]triazole-3-carboxylic acid {(S)-1-[(S)-1-((S)-1-carbamoyl-2-phenyl-ethylcarbamoyl)-4-guanidino-butylcarbamoyl]-2-cyclohexyl-ethyl}-amide]",2.4 µM
5,"N=C(N)NCCC[C@H](NC(=O)[C@H](CC1CCCCC1)NC(=O)c1nnc(NC(=O)C=Cc2ccc(F)cc2)[nH]1)C(=O)N[C@@H](Cc1ccccc1)C(N)=O [5-[(E)-3-(4-Fluoro-phenyl)-acryloylamino]-1H-[1,2,4]triazole-3-carboxylic acid {(S)-1-[(S)-1-((S)-1-carbamoyl-2-phenyl-ethylcarbamoyl)-4-guanidino-butylcarbamoyl]-2-cyclohexyl-ethyl}-amide]",7.9 µM
6,"N=C(N)NCCC[C@H](NC(=O)[C@H](CC1CCCCC1)NC(=O)c1nnc(NC(=O)C=Cc2ccccc2)[nH]1)C(=O)N[C@@H](Cc1ccccc1)C(N)=O [5-[(E)-(3-Phenyl-acryloyl)amino]-1H-[1,2,4]triazole-3-carboxylic acid {(S)-1-[(S)-1-((S)-1-carbamoyl-2-phenyl-ethylcarbamoyl)-4-guanidino-butylcarbamoyl]-2-cyclohexyl-ethyl}-amide]",21 µM
